Test results reported in patent US20260069626A1, “Compositions and Methods to Protect and Enhance Structural and Functional Integrity of the Intestinal Glycocalyx” (Calroy Health Sciences, LLC, priority 2023, published 2026).

Assays:
[1] = tested on: mouse intestinal glycocalyx; experiment: DSS-treated mice: WGA-FITC immunofluorescence of colon glycocalyx (Example 3); assay type: in vivo; details: for Average Florescence Intensity of Mouse Intestinal Glycocalyx after WGA-FITC Staining (AVI): oral mg/kg/day per Table IV: single agents 100, 3′-SL + 6′-SL 100 each, HMOs 50 each + COS 100; for mouse intestinal glycocalyx (FIG. 8, FIG. 9): oral, doses of Table IV
Method: Male C57BL/6J mice (18-20 g) of 6 weeks old were housed under controlled conditions with a constant temperature (23±2° C.), stable humidity, and a 12-hour light/dark cycle. After a one-week acclimatization period, the mice were randomly divided into 7 groups, with 5 mice per group: Control, DSS, DSS+3′-SL, DSS+6′-SL, DSS+5-ASA, DSS+6′-SL+3′-SL, and DSS+HMOs+COS. The control group received sterile water for 19 days. The DSS group was given 4% (wt/vol) DSS in their drinking water from days 8-14, with daily oral gavage of sterile water for 11 days. The other groups were treated with 3% DSS in their drinking water from days 8-14, along with oral administration of various functional glycans (mg/kg/day) of COS up to the 19th day (See Experimental Design in Table III). The DSS solution was replaced every two days to maintain its bioactivity. Mouse body weight, stool consistency, and rectal bleeding were monitored daily, alongside observations of coat sheen, mental state, and activity levels.
Immunofluorescence staining of mouse colon tissue was performed using the following procedure. Paraffin sections were prepared from the distal colon, 1 cm from the anus. Deparaffinization and rehydration were performed with xylene and ethanol, as follows: xylene (5 min×2), 100% ethanol (5 min×2), 90% ethanol (5 min×1), 80% ethanol (5 min×1), 70% ethanol (5 min×1), and deionized water (10 s). Endogenous peroxidase activity was quenched with 0.75% hydrogen peroxide for 10 minutes, followed by PBS washes. Antigen retrieval was performed by boiling the sections in 0.01 mol/L sodium citrate for 30 minutes. For WGA staining, sections were incubated overnight at 4° C. with 0.1 μg/μL FITC-WGA in PBS (40 μL per sample). After washing with PBS, nuclei were counterstained with DAPI and sections were mounted with an anti-fade medium. The stained sections were visualized under a fluorescence microscope, and the colonic mucosal glycocalyx was quantified using ImageJ software.

[2] = tested on: Caco-2 intestinal epithelial cell glycocalyx; experiment: Prevention/repair of DSS damage to Caco-2 glycocalyx, microfluidic chip, WGA-FITC (Example 2); assay type: cell-based; details: 2% DSS, single agents 200 μg/ml, 6′-SL and 3′-SL each 100 μg/ml, 100 μg/ml COS with 50 μg/ml each of 6′-SL, 2′-FL
Method: Using the same microfluidic chip model in Example 1, different functional glycans of RS, COS and hMO, and some combinations were evaluated for their capability to prevent and repair the damages of Caco-2 intestinal epithelial cell glycocalyx caused by DSS. […] In addition to DSS, a positive control of 5-aminosalicylic acid (5-ASA), RS, COS, different hMOS, and a combination of hMOs and COS at different concentrations in phosphate-buffered saline (PBS) with water were introduced into microfluidic chips for testing their effects on the intestinal glycocalyx in the presence of DSS.
FIG. 1 depicts the images of the intestinal epithelial cell glycocalyx and nucleus stained by WGA-FITC individually and together. […] Briefly, 2% DSS caused a significant decrease of intestinal glycocalyx as measured by WGA fluorescence intensity.

[3] = tested on: C57BL/6J mice treated with DSS; experiment: DSS-treated mice: body weight and Disease Activity Index (Example 3); assay type: in vivo, mouse; details: oral, doses of Table IV
Method: Male C57BL/6J mice (18-20 g) of 6 weeks old were housed under controlled conditions with a constant temperature (23±2° C.), stable humidity, and a 12-hour light/dark cycle. After a one-week acclimatization period, the mice were randomly divided into 7 groups, with 5 mice per group: Control, DSS, DSS+3′-SL, DSS+6′-SL, DSS+5-ASA, DSS+6′-SL+3′-SL, and DSS+HMOs+COS. The control group received sterile water for 19 days. The DSS group was given 4% (wt/vol) DSS in their drinking water from days 8-14, with daily oral gavage of sterile water for 11 days. […] Mouse body weight, stool consistency, and rectal bleeding were monitored daily, alongside observations of coat sheen, mental state, and activity levels. The Disease Activity Index (DAI) was used to assess colitis severity, calculated as the mean of the scores for weight loss, stool consistency, and rectal bleeding as described below. Mice were weighed daily at the same time, with the percentage of weight loss compared to the end of the acclimation period: <1% scored 0; 1-5% scored 1; 5-10% scored 2; 10-20% scored 3; >20% scored 4. Stool consistency was also evaluated daily: normal stool scored 0; soft but formed stool scored 1; paste-like stool scored 2; liquid stool scored 3. […] The DAI was calculated as the average of these three scores. […]

SMILES	Average Florescence Intensity of Mouse Intestinal Glycocalyx after WGA-FITC Staining (AVI) [1]	mouse intestinal glycocalyx (FIG. 8, FIG. 9) [1]	damage of the intestinal glycocalyx caused by DSS (WGA fluorescence intensity, FIG. 1-2) [2]	DAI at the end of the study compared to DSS only (FIG. 6) [3]	body weight at the end of the study compared to DSS only (FIG. 4) [3]
CC(=O)N[C@H]1[C@H]([C@H](O)[C@H](O)CO)O[C@@](O[C@H]2[C@@H](O)[C@@H](CO)O[C@@H](O[C@H]3[C@H](O)[C@@H](O)C(O)O[C@@H]3CO)[C@@H]2O)(C(=O)O)C[C@@H]1O (stereo partly drawn) [3′-SL, 3′-sialyllactose]	2.45	increased			
CC(=O)N[C@H]1[C@H]([C@H](O)[C@H](O)CO)O[C@@](OC[C@H]2O[C@@H](O[C@H]3[C@H](O)[C@@H](O)[C@H](O)O[C@@H]3CO)[C@H](O)[C@@H](O)[C@H]2O)(C(=O)O)C[C@@H]1O [6′-SL, 6′-sialyllactose]	2.75	increased	significantly prevented the damage		
Nc1ccc(O)c(C(=O)O)c1 [5-ASA, 5-aminosalicylic acid, reference compound]	2.56		significantly prevented the damage	significantly reduced	significant increase
